From PubChem BioAssay AID248 (DTP/NCI, 2004)
Several values for one entry are separate records, joined by “and”; a condition that tells them apart may be missing. Equal entries are not always repeated. Toxic doses and inconclusive results are not listed. Rule as the data show it: active = T/C of 150% or more; inactive = T/C below 125%.

Test system: L1210 leukemia ip in BDF1 mice, survival T/C
Assay: NCI In Vivo Anticancer Drug Screen. Data for tumor model L1210 Leukemia (intraperitoneal) in B6D2F1 (BDF1) mice
Conditions: endpoint: mean survival time, higher = longer survival
Outline: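 Survival endpoint. Drug-treated group vs vehicle group, expressed as T divided by C. Tumor passaged by transplantation.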

[1] = dose: 100.0 mg/kg/injection, schedule: Q01DX001 (ip), vehicle: saline
[2] = dose: 100.0 mg/kg/injection, schedule: Q01DX009 (ip), vehicle: saline
[3] = dose: 200.0 mg/kg/injection, schedule: Q01DX001 (ip), vehicle: saline
[4] = dose: 200.0 mg/kg/injection, schedule: Q01DX009 (ip), vehicle: saline
[5] = dose: 400.0 mg/kg/injection, schedule: Q01DX001 (ip), vehicle: saline
[6] = dose: 25.0 mg/kg/injection, schedule: Q01DX009 (ip), vehicle: saline with Tween-80
[7] = dose: 100.0 mg/kg/injection, schedule: Q04DX003 (ip), vehicle: saline with Tween-80
[8] = dose: 100.0 mg/kg/injection, schedule: Q04DX002 (ip), vehicle: saline with Tween-80
[9] = dose: 100.0 mg/kg/injection, schedule: Q01DX009 (ip), vehicle: Klucel (hydroxypropylcellulose) (HPC)
[10] = dose: 200.0 mg/kg/injection, schedule: Q01DX009 (ip), vehicle: Klucel (hydroxypropylcellulose) (HPC)
[11] = dose: 400.0 mg/kg/injection, schedule: Q01DX009 (ip), vehicle: Klucel (hydroxypropylcellulose) (HPC)
[12] = dose: 100.0 mg/kg/injection, schedule: Q01DX001 (ip), vehicle: carboxymethylcellulose (CMC)
[13] = dose: 200.0 mg/kg/injection, schedule: Q01DX001 (ip), vehicle: carboxymethylcellulose (CMC)
[14] = dose: 400.0 mg/kg/injection, schedule: Q01DX001 (ip), vehicle: carboxymethylcellulose (CMC)
[15] = dose: 100.0 mg/kg/injection, schedule: Q04DX003 (ip), vehicle: saline
[16] = dose: 200.0 mg/kg/injection, schedule: Q04DX003 (ip), vehicle: saline
[17] = dose: 50.0 mg/kg/injection, schedule: Q01DX001 (ip), vehicle: carboxymethylcellulose (CMC)
[18] = dose: 100.0 mg/kg/injection, schedule: Q04DX002 (ip), vehicle: Klucel (hydroxypropylcellulose) (HPC)
[19] = dose: 200.0 mg/kg/injection, schedule: Q04DX002 (ip), vehicle: Klucel (hydroxypropylcellulose) (HPC)
[20] = dose: 400.0 mg/kg/injection, schedule: Q04DX002 (ip), vehicle: Klucel (hydroxypropylcellulose) (HPC)

Measured: T/C

O=C(CC(=O)C(F)(F)F)c1cccs1.O=C(CC(=O)C(F)(F)F)c1cccs1.O=C(CC(=O)C(F)(F)F)c1cccs1.[Cr]
inactive: dose: 100.0 mg/kg/injection, schedule: Q01DX001 (ip), vehicle: other 91 % of control | dose: 100.0 mg/kg/injection, schedule: Q04DX003 (ip), vehicle: other 97 % of control | dose: 200.0 mg/kg/injection, schedule: Q01DX001 (ip), vehicle: other 94 % of control | dose: 200.0 mg/kg/injection, schedule: Q04DX003 (ip), vehicle: other 103 % of control | dose: 400.0 mg/kg/injection, schedule: Q01DX001 (ip), vehicle: other 96 % of control | dose: 400.0 mg/kg/injection, schedule: Q04DX003 (ip), vehicle: other 94 % of control

CS(=O)(=O)C(=C(N1CCCCC1)N1CCCCC1)S(=O)(=O)Cc1ccccc1
inactive: [1] 100 % of control | [2] 88 % of control | [3] 96 % of control | [4] 93 % of control | [5] 96 % of control

CC(C)(C)c1ccc(OCCO)cc1
inactive: dose: 25.0 mg/kg/injection, schedule: Q01DX009 (ip), vehicle: other 102 % of control | dose: 50.0 mg/kg/injection, schedule: Q01DX009 (ip), vehicle: other 96 % of control | dose: 100.0 mg/kg/injection, schedule: Q01DX009 (ip), vehicle: other 95 % of control

CC#CC(=O)SCCNC(=O)CC
inactive: [6] 104 % of control | dose: 50.0 mg/kg/injection, schedule: Q01DX009 (ip), vehicle: saline with Tween-80 96 % of control | [7] 103 % of control | dose: 200.0 mg/kg/injection, schedule: Q04DX003 (ip), vehicle: saline with Tween-80 91 % of control

O=S(=O)(F)c1ccc(S)c(Cl)c1Cl
inactive: dose: 25.0 mg/kg/injection, schedule: Q04DX002 (ip), vehicle: saline with Tween-80 102 % of control | dose: 50.0 mg/kg/injection, schedule: Q04DX002 (ip), vehicle: saline with Tween-80 91 % of control | [8] 89 % of control

C[Si](C)(C)C1C2c3ccccc3C1C1(C#N)C(=O)C(Cl)=C(Cl)C(=O)C21C#N (stereo unspecified)
inactive: [7] 93 % of control

CSc1ccc(NC(=O)/C=C/c2ccccc2)cc1
inactive: [9] 106 % of control | [10] 112 % of control | [11] 102 % of control

O=C(CCl)N1CCC(CC2(c3cc4ccccc4[nH]3)OCCO2)CC1
inactive: dose: 100.0 mg/kg/injection, schedule: Q04DX002 (ip), vehicle: other 97 % of control | dose: 200.0 mg/kg/injection, schedule: Q04DX002 (ip), vehicle: other 90 % of control | dose: 400.0 mg/kg/injection, schedule: Q04DX002 (ip), vehicle: other 94 % of control

C=C1CCCC(O)CCC1
inactive: dose: 75.0 mg/kg/injection, schedule: Q01DX001 (ip), vehicle: other 102 % of control | dose: 150.0 mg/kg/injection, schedule: Q01DX001 (ip), vehicle: other 98 % of control | dose: 300.0 mg/kg/injection, schedule: Q01DX001 (ip), vehicle: other 96 % of control

CN1CN(c2ccccc2)C2(CCN(c3nc4ccccc4s3)CC2)C1=O
inactive: dose: 100.0 mg/kg/injection, schedule: Q01DX001 (ip), vehicle: Klucel (hydroxypropylcellulose) (HPC) 91 % of control | dose: 200.0 mg/kg/injection, schedule: Q01DX001 (ip), vehicle: Klucel (hydroxypropylcellulose) (HPC) 94 % of control | dose: 400.0 mg/kg/injection, schedule: Q01DX001 (ip), vehicle: Klucel (hydroxypropylcellulose) (HPC) 96 % of control

O=C(Nc1cccc2ccccc12)Nc1cccc2ccccc12
inactive: [12] 95 % of control | [13] 90 % of control | [14] 92 % of control

CC(=O)OCC[N+](C)(C)CCCCC[N+](C)(C)CCOC(C)=O
inactive: [2] 100 % of control | [15] 95 % of control | [4] 113 % of control | [16] 102 % of control | dose: 400.0 mg/kg/injection, schedule: Q04DX003 (ip), vehicle: saline 88 % of control

O=C(OCC1OC(OC(=O)c2ccccc2)C(OC(=O)c2ccccc2)C(OC(=O)c2ccccc2)C1OC(=O)c1ccccc1)c1ccccc1 (stereo unspecified)
inactive: [1] 98 % of control | [3] 98 % of control | [5] 106 % of control

CCCCC(CCCC)NCCO
inactive: dose: 75.0 mg/kg/injection, schedule: Q01DX001 (ip), vehicle: carboxymethylcellulose (CMC) 98 % of control | dose: 150.0 mg/kg/injection, schedule: Q01DX001 (ip), vehicle: carboxymethylcellulose (CMC) 96 % of control

COC1=C(NC2CCCCC2)C(=O)C(OC)=C(NC2CCCCC2)C1=O
inactive: [17] 103 % of control | [12] 101 % of control | [9] 86 % of control | dose: 100.0 mg/kg/injection, schedule: Q04DX003 (ip), vehicle: Klucel (hydroxypropylcellulose) (HPC) 96 % of control | [13] 101 % of control | [10] 98 % of control | dose: 200.0 mg/kg/injection, schedule: Q04DX003 (ip), vehicle: Klucel (hydroxypropylcellulose) (HPC) 94 % of control | [14] 103 % of control | [11] 91 % of control | dose: 400.0 mg/kg/injection, schedule: Q04DX003 (ip), vehicle: Klucel (hydroxypropylcellulose) (HPC) 94 % of control

N#CC1(Nc2ccc(-c3ccc(NC4(C#N)CCCC4)cc3)cc2)CCCC1
inactive: [17] 90 % of control | [12] 95 % of control | [14] 88 % of control

CCOC(=O)Cc1nnn(C)n1
inactive: [15] 93 % of control | [16] 90 % of control

CCOC(=O)N/N=C/c1ccccc1OC
inactive: dose: 75.0 mg/kg/injection, schedule: Q01DX001 (ip), vehicle: saline 90 % of control | dose: 150.0 mg/kg/injection, schedule: Q01DX001 (ip), vehicle: saline 90 % of control | dose: 300.0 mg/kg/injection, schedule: Q01DX001 (ip), vehicle: saline 96 % of control

CCN(CC)C(=O)Nc1cccc(N)c1
inactive: [18] 97 % of control | [19] 101 % of control | [20] 97 % of control

O=C(Nc1cccc2ccccc12)OCc1ccccc1
inactive: [18] 108 % of control | [19] 89 % of control | [20] 93 % of control

CC(Cl)CNC(C)C (stereo unspecified)
inactive: [1] 103 % of control | [3] 92 % of control | [5] 103 % of control

CC1=CC(=N\S(=O)(=O)c2ccccc2)/c2ccccc2/C1=N/S(=O)(=O)c1ccccc1
inactive: dose: 25.0 mg/kg/injection, schedule: Q01DX001 (ip), vehicle: saline sonified 92 % of control | dose: 50.0 mg/kg/injection, schedule: Q01DX001 (ip), vehicle: saline sonified 95 % of control | dose: 100.0 mg/kg/injection, schedule: Q01DX001 (ip), vehicle: saline sonified 95 % of control

O=C(Nc1nc(Cl)nc(Cl)n1)N1CCOCC1
inactive: dose: 12.5 mg/kg/injection, schedule: Q04DX003 (ip), vehicle: saline with Tween-80 95 % of control | [6] 113 % of control | dose: 25.0 mg/kg/injection, schedule: Q04DX003 (ip), vehicle: saline with Tween-80 101 % of control

CC1(C)OC2OC(COC(=S)Sc3ccc([N+](=O)[O-])cc3[N+](=O)[O-])C3OC(C)(C)OC3C2O1 (stereo unspecified)
inactive: dose: 6.25 mg/kg/injection, schedule: Q04DX002 (ip), vehicle: saline 95 % of control | dose: 12.5 mg/kg/injection, schedule: Q04DX002 (ip), vehicle: saline 98 % of control | dose: 25.0 mg/kg/injection, schedule: Q04DX002 (ip), vehicle: saline 106 % of control and 91 % of control | dose: 50.0 mg/kg/injection, schedule: Q04DX002 (ip), vehicle: saline 120 % of control | dose: 100.0 mg/kg/injection, schedule: Q04DX002 (ip), vehicle: saline 100 % of control

CSc1ccc(OC(=O)Nc2cccc3ccccc23)cc1
inactive: [18] 96 % of control | [19] 104 % of control | [20] 101 % of control

O=C(O)c1cc(Br)cc(I)c1I
inactive: [8] 105 % of control | dose: 200.0 mg/kg/injection, schedule: Q04DX002 (ip), vehicle: saline with Tween-80 105 % of control | dose: 400.0 mg/kg/injection, schedule: Q04DX002 (ip), vehicle: saline with Tween-80 110 % of control
